How the values were obtained:
[1] = target: T1, Amine oxidase [flavin-containing] B (Homo sapiens, UniProt P27338); test: Inhibition of human recombinant MAO-B expressed in baculovirus infected BTI insect cells using luminogenic MAO substrate incubated for 1 hr by MAO-Glo assay
T1 sequence (P27338 whole entry): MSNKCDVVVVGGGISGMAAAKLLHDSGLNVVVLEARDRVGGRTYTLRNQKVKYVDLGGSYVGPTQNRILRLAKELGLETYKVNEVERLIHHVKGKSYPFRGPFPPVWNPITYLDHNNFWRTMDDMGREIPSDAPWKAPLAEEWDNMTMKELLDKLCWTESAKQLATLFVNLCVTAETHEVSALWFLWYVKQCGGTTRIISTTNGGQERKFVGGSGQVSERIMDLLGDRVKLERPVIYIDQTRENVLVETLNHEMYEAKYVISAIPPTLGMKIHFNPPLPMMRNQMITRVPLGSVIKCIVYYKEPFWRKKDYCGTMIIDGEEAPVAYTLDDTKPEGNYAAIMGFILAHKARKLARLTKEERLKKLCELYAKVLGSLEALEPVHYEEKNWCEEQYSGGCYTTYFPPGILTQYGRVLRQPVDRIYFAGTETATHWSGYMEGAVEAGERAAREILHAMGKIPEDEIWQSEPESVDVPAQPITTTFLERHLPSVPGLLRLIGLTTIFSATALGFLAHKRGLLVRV

[2] = target: T2, Amine oxidase [flavin-containing] A (Homo sapiens, UniProt P21397); test: Inhibition of human recombinant MAO-A expressed in baculovirus infected BTI insect cells using luminogenic MAO substrate incubated for 1 hr by MAO-Glo assay
T2 sequence (P21397 whole entry): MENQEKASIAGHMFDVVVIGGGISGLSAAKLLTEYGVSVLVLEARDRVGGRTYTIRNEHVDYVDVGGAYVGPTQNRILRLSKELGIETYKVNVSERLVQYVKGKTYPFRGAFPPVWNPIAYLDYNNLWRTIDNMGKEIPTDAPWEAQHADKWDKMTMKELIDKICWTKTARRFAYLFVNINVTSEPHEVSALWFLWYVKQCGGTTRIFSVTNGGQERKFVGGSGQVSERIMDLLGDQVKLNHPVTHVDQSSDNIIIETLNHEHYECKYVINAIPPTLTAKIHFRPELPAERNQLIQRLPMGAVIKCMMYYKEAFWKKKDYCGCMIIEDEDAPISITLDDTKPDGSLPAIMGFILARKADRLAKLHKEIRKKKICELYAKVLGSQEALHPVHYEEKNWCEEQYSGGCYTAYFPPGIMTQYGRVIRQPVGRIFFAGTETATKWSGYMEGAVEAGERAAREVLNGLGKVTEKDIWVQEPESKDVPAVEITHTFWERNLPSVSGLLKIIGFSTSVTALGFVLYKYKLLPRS

[3] = species on record: Homo sapiens; test: Selectivity index, ratio of IC50 for human recombinant MOA-A expressed in baculovirus infected BTI insect cells to IC50 for MAO-B expressed in baculovirus infected BTI insect cells; conditions: time 1.0 hrs

SMILES	IC50 [1]	IC50 [2]	Selectivity Index [3]
Cc1c(C(=O)CC2CCNCC2)[nH]c2ccccc12	121 µM	82.5 µM	
O=C(CC1CCNCC1)c1cc2ccccc2[nH]1	66.6 µM	720 µM	11

More lines, main results first:

IC50 [1]	IC50 [2]	SMILES	Selectivity Index [3]
488 µM	> 1000 µM	C=C[C@@H]1CNCC[C@@H]1CC(=O)c1[nH]c2ccccc2c1CCO	
412 µM	> 1000 µM	C=C[C@H]1CNCC[C@H]1CC(=O)c1[nH]c2ccccc2c1CCO	
> 1000 µM	> 1000 µM	O=C(CC1CCNCC1)c1[nH]c2ccccc2c1CCO	
